Consider four compounds from EP3095872A1, “A METHOD OF PRODUCING ALPHA AMINO ACIDS” (Evonik Degussa GmbH, priority 2015, dated 2016).

Like-named read-outs stand apart in the source and are kept apart here. Marks after values point to notes of the source that are not given here.

The test system of series [1] is P450Cla. As to the kind of experiment: conversion of fatty acid substrates 1a-d with P450Cla, oxidant H2O2. Format: biochemical. As to conditions: 3 µM P450Cla, 24 h, RT, values marked a based on substrate depletion. Here is the method:
P450Cla was ordered as synthetic gene and cloned into the pET28a expression vector. […] The dialysis buffer was supplemented with 300 mM NaCl to prevent precipitation of P450Cla. Next, hydroxylation of fatty acid substrates 1a-d (scheme 2) was performed employing purified P450Cla and P450BSß. The oxidant source was varied in case of P450Cla while only H2O2 was used with P450BSß.
Reaction conditions for P450Cla: 3µM P450Cla; Tris-HCl (pH 7.5; 0.1 M); 2.5 to 5 % EtOH (cosolvent for the substrate).
All reactions were performed in closed glass vials for 24 h reaction time at RT with 170 rpm shaking. The reactions were quenched by addition of 100 µl 5 N HCl. Extractions were performed with 500 µl EtOAc containing 0.1 % 1-decanol as internal standard. After drying over Na2SO4, derivatization of acids to corresponding methyl esters was realized by mixing 150 µl of organic phase with 90µl of MeOH prior to supplementation of 20 µl of TMSCHN2 for esterification. Samples were analyzed by GC-FID and GC-MS. Commercial standards of 2-hydroxycaproic acid (2a), 2-hydroxyoctanoic acid (2b) and 2-oxooctanoic acid (4b) were used as references. Calibration curves were obtained from standards 1a-d and 2a-b prepared identically to the reaction mixtures (5 concentration points from 10 µM to 1 mM).

The subject of the next series is P450Cla+CamAB. The series is described as follows: conversion of fatty acid substrate with P450Cla+CamAB, oxidant O2 + NADPH. Type of series: biochemical. The conditions noted are these: 10 mM substrate, % of the product area of the reaction with H2O2 and 10 mM 1d. As for the experimental part: (§1) P450BSß was expressed and purified as described in Matsunaga et al. 2001. P450Cla was ordered as synthetic gene and cloned into the pET28a expression vector. Efficient expression of P450Cla was obtained by applying the expression protocol (TBmedia, 20 h, 30 °C) as described in Nazor et al. (2008) under heading 'shake flask expression of P450 BM3'. Purification was performed according to the published protocol (Girhard M., et al, 2007) with minor alterations as (unreported) precipitation of P450Cla during dialysis occured. The dialysis buffer was supplemented with 300 mM NaCl to prevent precipitation of P450Cla. Next, hydroxylation of fatty acid substrates 1a-d (scheme 2) was performed employing purified P450Cla and P450BSß. The oxidant source was varied in case of P450Cla while only H2O2 was used with P450BSß. Table 2: Conversion of fatty acid substrates 1a-d with P450Cla and CYPBSß
(§2) All reactions were performed in closed glass vials for 24 h reaction time at RT with 170 rpm shaking. The reactions were quenched by addition of 100 µl 5 N HCl. Extractions were performed with 500 µl EtOAc containing 0.1 % 1-decanol as internal standard. After drying over Na2SO4, derivatization of acids to corresponding methyl esters was realized by mixing 150 µl of organic phase with 90µl of MeOH prior to supplementation of 20 µl of TMSCHN2 for esterification. Samples were analyzed by GC-FID and GC-MS. […]

The subject of series [2] is P450Cla. The series is described as follows: conversion of fatty acid substrate with P450Cla, oxidant O2 + NADPH. The conditions noted are these: 10 mM substrate, without CamAB. Format: biochemical. Here is the method: as §1, §2
In the next series the test system is HICDH-proteins. The series is described as follows: spectrophotometric monitoring (340 nm) and GC-FID of HICDH oxidation and reduction. Format: biochemical.
In series [3] the test system is P450Cla. As to the kind of experiment: alpha-hydroxylation of selected fatty acids, catalytic and kinetic characterization of P450Cla. Format: biochemical. As to conditions: for Product: 10 mM fatty acid, 0.5 µM P450Cla (C10), 1 µM (C8, C6), Tris-HCl pH 7.5, RT, triplicate; for specific activity U mg^-1: P450Cla 48 kDa, values only relevant at initial rate; for Coupling*: mol product per mol H2O2. Here is the method: Hydroxylation of selected fatty acids was carried out using a fresh preparation of purified P450Cla. P450Cla was characterised for key catalytic parameters specific activities were determined for three selected substrates as shown in Table 1. Table 1: Catalytic and kinetic characterization of P450Cla for conversion of 10 mM of selected fatty acids. All reactions were performed in triplicate.
Conditions: 0.5 µM P450Cla used in reactions with C10; 1 µM P450Cla used in reactions with C8 and C6; All reactions were performed in Tris-HCl (pH 7.5, 0.1 M) at RT and 170 rpm shaking in closed glass vials; *molProduct^-1 molH2O2^-1; ^§molecular weight of P450Cla is 48 kDa, values only relevant at initial rate.

The test system of series [4] is P450Cla. As to the kind of experiment: preparative scale conversion of decanoic acid with P450Cla. Type of series: biochemical. As to conditions: 20 mM decanoic acid; 4 µM P450Cla; 32 mM H2O2 in total; 24 h. As for the experimental part:
Synthesis of 2-hydroxydecanoic acid was done in 10 ml Tris-HCl (pH 7.5; 0.1 M) employing 4µM P450Cla, 20 mM decanoic acid (38.8 mg of the sodium salt) and 2.5 % EtOH (RT, 170 rpm shaking). Hydrogen peroxide (1.6 mM) was added every 30 min (20 times; in total 32 mM) to the reaction mixture. After 24 h reaction time, 1 ml 5 N HCl was added to stop the reaction. Product extraction was repeated five times using 5 ml EtOAc prior to purification by silica chromatography column using EtOAc/petroleum ether/acetic acid as mobile phase (80:20:1.2). Fractions containing the desired product were combined and concentrated by evaporation under reduced pressure. With the present set up, 16 mg of 2-hydroxydecanoic acid (46 % isolated yield, TTNP450 ∼ 3040) was isolated which was confirmed by GC-MS, 1 H- and 13C-NMR (Figure 1).

In another series the target is T1, P450 BM3 variant M2 (Priestia megaterium, UniProt P14779, I402M/R48S/Y52W).
T1 construct: made in house; host or cells: E. coli BL21 Gold (DE3)-derived E. coli lacIQ1 Gold (DE3)
T1 sequence (P14779 whole entry R48S/Y52W/I402M): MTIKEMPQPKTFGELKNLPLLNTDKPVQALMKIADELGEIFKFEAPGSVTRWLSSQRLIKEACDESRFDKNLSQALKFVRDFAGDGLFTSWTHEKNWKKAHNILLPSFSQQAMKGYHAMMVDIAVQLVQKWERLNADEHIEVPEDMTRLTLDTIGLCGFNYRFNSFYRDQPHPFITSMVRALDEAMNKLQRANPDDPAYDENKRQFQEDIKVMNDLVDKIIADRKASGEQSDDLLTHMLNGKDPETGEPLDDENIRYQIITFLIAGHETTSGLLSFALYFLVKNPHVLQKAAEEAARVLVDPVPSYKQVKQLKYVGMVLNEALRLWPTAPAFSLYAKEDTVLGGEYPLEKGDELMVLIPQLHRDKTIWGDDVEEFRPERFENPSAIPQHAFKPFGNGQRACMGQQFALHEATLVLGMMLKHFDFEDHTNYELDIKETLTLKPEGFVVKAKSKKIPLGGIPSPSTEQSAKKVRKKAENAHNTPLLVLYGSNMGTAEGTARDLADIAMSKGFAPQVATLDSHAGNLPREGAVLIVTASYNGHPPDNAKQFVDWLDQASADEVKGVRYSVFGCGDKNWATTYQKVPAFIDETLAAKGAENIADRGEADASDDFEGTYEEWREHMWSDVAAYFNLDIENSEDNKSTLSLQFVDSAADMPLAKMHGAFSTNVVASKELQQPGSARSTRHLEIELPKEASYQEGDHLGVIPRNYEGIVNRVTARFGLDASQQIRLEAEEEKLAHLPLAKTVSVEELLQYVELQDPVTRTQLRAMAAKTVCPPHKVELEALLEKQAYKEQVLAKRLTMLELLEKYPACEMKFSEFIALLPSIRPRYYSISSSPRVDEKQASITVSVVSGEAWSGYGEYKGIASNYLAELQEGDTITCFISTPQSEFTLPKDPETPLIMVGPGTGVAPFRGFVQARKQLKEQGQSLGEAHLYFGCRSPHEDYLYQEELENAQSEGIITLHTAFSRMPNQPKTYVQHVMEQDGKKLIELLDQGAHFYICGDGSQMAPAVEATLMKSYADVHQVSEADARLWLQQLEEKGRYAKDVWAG
Format: biochemical, Bacillus megaterium. As to conditions: 50 mM substrate; O2 as oxidant; GDH/glucose NADPH regeneration; absent in control reactions. Here is the method:
Ethyl acetoxy-butanoate (EAB) was converted with P450 BM3 variant M2 employing O2 as oxidant.
The essential NADPH cofactor was regenerated using a glucose dehydrogenase (GDH) and glucose as shown in Scheme 3. [drawing 4]
Reactions were done in 1 mL scale (KPi-buffer, pH 7.5, 0.1 M) containing following components: • 12 U GDH • 100 mM glucose • 400 µM NADP+ • 50 mM EBA (substrate) in DMSO (5 % V/V DMSO final) • 50 mg cell free freeze dried lysate of P450 BM3 variant M2
For analysis, 100 µl of the reaction volume were mixed with 100 µl acetonitrile followed by centrifugation to remove insoluble particles. The supernatant was diluted 1:50 in H2O/acetonitrile (50:50; V/V) followed by injection into the LC-MS.
In addition, the product peaks elute earlier than the substrate (3.699 min) indicating a higher polarity possibly due to a hydroxylation of EAB.

On to `CCCCCCCCCCCC(=O)O` [Substrate 1d, dodecanoic acid], for which the Conversion in the series on P450Cla [1] (5 mM substrate, H2O2 9.6 mM total) is reported as >99^a %; in the series on P450Cla [1] (10 mM substrate, H2O2 19.2 mM total) it was >99^a %; in the series with P450Cla+CamAB, 5^b %; in the series on P450Cla [2] it was 0%.
Consider `CCCCCCC(=O)C(=O)O` [Substrate 4b, 2-oxooctanoic acid], for which the “Reduction to 2-hydroxy octanoic acid 2b (GC-FID)” value in the series on HICDH-proteins is given as “confirmed”.
On to `CCCCCCCCCC(=O)O` [Substrate C10, decanoic acid], for which, in the series with P450Cla [3], the “Selectivity [% α-OH]” value is recorded as greater than 90% and the specific activity was no less than 1 U mg^-1. Further, in the series on P450Cla [3] (5 min, H2O2 0.8 mM), the Product was 0.67 ± 0.04 mM, the “Selectivity [% α-OH]” value is reported as greater than 95%, the TON turned out to be 266 min⁻¹ and the TTN came out at 1330. Further, in the series on P450Cla [3] (5 min, H2O2 0.8 mM), the “specific activity U mg^-1” value came out at 5.5 U mg^-1 and the “Coupling*” value is 83%. Besides, in the series with P450Cla [3] (15 min, H2O2 0.8 mM), the Product came out at 0.6 ± 0.02 mM, the “Selectivity [% α-OH]” value was greater than 95%, the TON came to 80 min⁻¹ and the TTN was found to be 1207. Besides, in the series with P450Cla [3] (15 min, H2O2 0.8 mM), the “specific activity U mg^-1” value was 1.7 U mg^-1 and the “Coupling*” value is reported as 75%. Further, in the series on P450Cla [3] (30 min, H2O2 1.6 mM), the Product was 1.2 ± 0.06 mM, the “Selectivity [% α-OH]” value is recorded as greater than 95%, the TON stood at 80 min⁻¹ and the TTN is listed as 2406. Besides, in the series on P450Cla [3] (30 min, H2O2 1.6 mM), the “specific activity U mg^-1” value was determined as 1.7 U mg^-1 and the “Coupling*” value is listed as 75%. Besides, the TTNP450 in the series on P450Cla [4] was roughly 3040.
Take Ethyl acetoxy-butanoate [EAB]: the “products of mass 190.08+1 (LC-MS)” value at P450 BM3 variant M2 is “formation of two product peaks”.
